The results in this text go back to ChEMBL document CHEMBL4406879, “A mouse model-based screening platform for the identification of immune activating compounds such as natural products for novel cancer immunotherapies” (Bioorg Med Chem, 2019).

Structures are written as SMILES. Calls of active or inactive are those of the source. The rule behind the calls is not given here.

Data set [1] relates to Bone marrow cell. Put plainly: Cytotoxicity against GM-CSF-cultured mouse cDC-rich bone marrow cells assessed as cell viability at 1 to 10 uM incubated for 24 hrs by MTT assay. It is filed as cell-based. For orientation: Formazan colour is commonly taken as a measure of viable cells.
Data set [2] concerns Bone marrow cell. Put plainly: Cytotoxicity against Flt3L-cultured mouse pDC-rich bone marrow cells assessed as cell viability at 1 to 10 uM incubated for 24 hrs by MTT assay. It counts as cell-based.
The subject of data set [3] is Bone marrow cell. Put plainly: Cytotoxicity against M-CSF-cultured mouse macrophage-rich bone marrow cells assessed as cell viability at 1 to 10 uM incubated for 24 hrs by MTT assay. It counts as cell-based.
Data set [4] deals with Dendritic cell. Briefly: Immunostimulatory activity in GM-CSF-cultured bone marrow-derived dendritic cells isolated from get40 cytokine reporter mouse model assessed as induction of IL12p40 production at 0.1 to 10 uM incubated for 16 hrs in presence of CpG 2216 by flow cytometry relative to control. It is filed as functional. (In general: A flow cytometer gives signals particle by particle.)

Data set [5] has as its system Dendritic cell. Briefly: Immunostimulatory activity in GM-CSF-cultured bone marrow-derived dendritic cells isolated from get40 cytokine reporter mouse model assessed as induction of IL12p40 production at 0.1 to 10 uM incubated for 16 hrs by flow cytometry relative to control. It counts as functional.
For data set [6], the species on record is Mus musculus. Briefly: Immunostimulatory activity in CD4-positive T cells isolated from OVA-specific OT-II TCR transgenic mouse model assessed as T cell activation by measuring increase in IL-2 production at 10 uM compound incubated with GM-CSF cultured mouse bone marrow cells for 24 hrs followed by addition of isolated CD4+ T cells and further incubation for 5 days by ELISA. It is filed as functional, cell-based. A general note: ELISA stands for enzyme-linked immunosorbent assay.

Data set [7] relates to Dendritic cell. Put plainly: Immunostimulatory activity in GM-CSF-cultured bone marrow-derived dendritic cells isolated from get40 cytokine reporter mouse model assessed as induction of IL12p40 production at 0.1 to 10 uM incubated for 16 hrs in presence of LPS by flow cytometry relative to control. It is filed as functional.
A further data set has as its system Jurkat. Put plainly: Cytotoxicity against human Jurkat cells. It counts as functional, cell-based.
Another data set concerns Ramos. Put plainly: Cytotoxicity against human Ramos cells. It counts as functional, cell-based.
The subject of data set [8] is Mycobacterium tuberculosis. Briefly: Antibacterial activity against Mycobacterium tuberculosis. It is filed as functional, organism-based.
For data set [9], the species on record is Mus musculus. Put plainly: Immunostimulatory activity in CD4-positive T cells isolated from OVA-specific OT-II TCR transgenic mouse model assessed as T cell activation by measuring increase in IL-2 production at 1 uM compound incubated with GM-CSF cultured mouse bone marrow cells in presence of CpG 2216 for 24 hrs followed by addition of isolated CD4+ T cells and further incubation for 5 days by ELISA. It is filed as functional, cell-based.

Consider `[O-][n+]1ccc2c([nH]c3ccccc32)c1C1=C[C@@]2(O)CC/C=C\CCCCN3CC[C@@H]1[C@]1(CC/C=C\CCCCN[C@H]12)C3`, for which the Activity entry in the data set with Bone marrow cell [1], in the data set with Bone marrow cell [2] and in the data set on Bone marrow cell [3] was “Non-Toxic” each time. For the same compound, the “fold change (FC)” value with Dendritic cell [4], with Dendritic cell [5] and with Dendritic cell [7] was 2 in each case. For the same compound, the result in the data set listed under Mus musculus [6] was inactive. The result (in the data set on Jurkat; with Ramos; in data set [8]) was Active.

On to `C=C1[C@@H](C)[C@H]2[C@H](Cc3ccccc3)NC(=O)[C@]23[C@H](OC(C)=O)/C=C/[C@@H](C)C[C@@H](C)C/C=C/[C@H]3[C@@H]1O`, for which the Activity entry in the data set with Bone marrow cell [1], in the data set on Bone marrow cell [2] and in the data set on Bone marrow cell [3] was “Non-Toxic” each time. In addition, the “fold change (FC)” value with Dendritic cell [4], with Dendritic cell [5] and with Dendritic cell [7] was 2 each time. Further, the result in the data set filed under Mus musculus [9], with Jurkat and with Ramos was Active.

As to `C=C1[C@@H](C)[C@H]2[C@H](Cc3ccccc3)NC(=O)[C@]23[C@H](OC(C)=O)/C=C/[C@@](C)(O)C(=O)[C@@H](C)C/C=C/[C@H]3[C@@H]1O` [CYTOCHALASIN D], the Activity entry in the data set with Bone marrow cell [1], in the data set with Bone marrow cell [2] and with Bone marrow cell [3] was “Non-Toxic” throughout. The “fold change (FC)” value with Dendritic cell [4], in the data set with Dendritic cell [5] and in the data set with Dendritic cell [7] was 2 throughout. Moreover, the result in the data set filed under Mus musculus [9], in the data set with Jurkat and in the data set with Ramos was Active.
